Test results: ChEMBL document CHEMBL2385001, “Synthesis and evaluation of 7-chloro-4-(piperazin-1-yl)quinoline-sulfonamide as hybrid antiprotozoal agents” (Bioorg Med Chem, 2013)

Columns and labels:
[1] = Cytotoxicity against human HT-29 cells assessed as cell viability at 100 uM after 48 hrs by MTT assay relative to control; assay type: cell-based; details: read-out: Activity
[2] = Safety index, ratio of cytotoxicity against human HT-29 cells to antimalarial activity against chloroquine-resistant Plasmodium falciparum FCR-3; assay type: toxicity, cell-based; details: read-out: Selectivity Index
[3] = Cytotoxicity against human HT-29 cells assessed as growth inhibition at 100 uM after 48 hrs by MTT assay relative to control; assay type: cell-based; details: read-out: GI
[4] = Hemolytic activity in human RBC at 100 uM after 48 hrs relative to control; assay type: ADME, cell-based, Erythrocyte; details: red blood cells, read-out: Activity
[5] = tested on: Entamoeba histolytica; test: Antiamoebic activity against trophozoite stage of Entamoeba histolytica HM-1:IMSS assessed as growth inhibition after 72 hrs by microdilution method; assay type: functional, organism-based
[6] = tested on: Plasmodium falciparum; test: Antimalarial activity against chloroquine-resistant Plasmodium falciparum FCR-3 assessed as growth inhibition after 24 hrs by [3H]-hypoxanthine incorporation assay; assay type: functional; details: FCR-3/Gambia
[7] = Inhibition of beta-haematin formation after 24 hrs by microtiter plate assay; assay type: functional
[8] = Safety index, ratio of cytotoxicity against human HT-29 cells to antiamoebic activity against trophozoite stage of Entamoeba histolytica HM-1:IMSS; assay type: toxicity, cell-based; details: read-out: Selectivity Index

Structure (SMILES)	viability at 48 h, 100 µM [1]	selectivity ratio [2]	inhibition at 48 h, 100 µM [3]	hemolysis at 48 h, 100 µM [4]	IC50 [5]	IC50 [6]	IC50 [7]	selectivity ratio [8]
O=[N+]([O-])c1ccccc1S(=O)(=O)N1CCN(c2ccnc3cc(Cl)ccc23)CC1	86.1%	44	17%	0.01%	> 100 µM	1.94 µM	63.5 µM	
O=S(=O)(c1ccc2ccccc2c1)N1CCN(c2ccnc3cc(Cl)ccc23)CC1	59.8%			0.97%	23.4 µM	3.06 µM	71.2 µM	
Cc1ccc(S(=O)(=O)N2CCN(c3ccnc4cc(Cl)ccc34)CC2)cc1	64.5%			0.62%	4.54 µM	4.22 µM	8.92 µM	14
O=S(=O)(c1cc(Cl)ccc1Cl)N1CCN(c2ccnc3cc(Cl)ccc23)CC1	63.4%			2.06%	30.2 µM	2.55 µM	47.2 µM	
CC(=O)Nc1ccc(S(=O)(=O)N2CCN(c3ccnc4cc(Cl)ccc34)CC2)cc1	96.8%	84	17%	0.83%	9.61 µM	1.16 µM	8.84 µM	
CS(=O)(=O)N1CCN(c2ccnc3cc(Cl)ccc23)CC1	73%			0.01%	> 100 µM	8.54 µM	13.5 µM	
O=S(=O)(c1ccccc1)N1CCN(c2ccnc3cc(Cl)ccc23)CC1	55.1%		45%	0.01%	32.8 µM	4.02 µM	18.1 µM	
C=C[C@H]1CN2CC[C@H]1C[C@H]2[C@H](O)c1ccnc2ccc(OC)cc12 [QUININE]				2.14%		0.17 µM	22.1 µM	
CC(C)(C)c1ccc(S(=O)(=O)N2CCN(c3ccnc4cc(Cl)ccc34)CC2)cc1	67.7%			1.36%	2.86 µM	6.09 µM	72.4 µM	24
CC[C@@]1(O)C(=O)OCc2c1cc1n(c2=O)Cc2cc3ccccc3nc2-1 [CAMPTOTHECIN]	48.3%		52%					
COc1ccc(S(=O)(=O)N2CCN(c3ccnc4cc(Cl)ccc34)CC2)cc1	68.1%			6.03%	8.23 µM	3.3 µM	9.04 µM	
CCCS(=O)(=O)N1CCN(c2ccnc3cc(Cl)ccc23)CC1	67.1%	39	17%	0.82%	> 100 µM	1.72 µM	1.79 µM	
O=S(=O)(c1ccc(Cl)cc1)N1CCN(c2ccnc3cc(Cl)ccc23)CC1	61.3%			1.4%	25.7 µM	3.27 µM	34.8 µM	
